{
  "source": "patent US10093642B2",
  "about": "“Multitarget hedgehog pathway inhibitors and uses thereof” (UNIVERSITA' DEGLI STUDI DI SIENA, priority 2013, dated 2018)",
  "key": {"[1]": {"tested_on": "ASZ001 basal cell carcinoma cells", "assay": "ASZ001 BCC cell growth, cell death and Gli1 mRNA", "format": "cell-based", "settings": "in vitro treatment", "method": "FIG. 15. Inhibition of Gli-dependent BCC tumor cell growth. ASZ001 BCC cells were treated with Glabrescione B (GlaB) 5 μM or DMSO only (A) or with Glabrescione B 1, 5 and 10 μM (GlaB) or DMSO only (B). After the indicated times, a trypan blue count was performed to determine the growth rate (A) or the percentage of cell death (B). (C) Gli1 mRNA expression levels were determined by qRT-PCR after treatment of ASZ001 BCC cells with Glabrescione B (GlaB) or DMSO only for the indicated times. Results are expressed in arbitrary units as relative quantification normalized with endogenous control β2-microglobulin and HPRT. […] Error bars indicate SD. *P<0.05 vs DMSO.\nTotal RNA was isolated with Trizol (Invitrogen, Eugene, Or, USA) and reverse transcribed with Superscript II reverse transcriptase and random hexamers (Invitrogen, Eugene, Or, USA). Quantitative real-time PCR (qRT-PCR) analysis of Gli1, Gli2, Ptch1, Ptch2, Nanog, Oct-4, Cyclin D1, Cyclin D2, Nmyc, HIP1, Sfrp1, Bmp2, IGF2, β-2 microglobulin, HPRT, mRNA expression was performed on each cDNA sample using the ABI Prism 7900HT Sequence Detection System employing Assay-on-Demand Reagents (Applied Biosystems, Foster City, Calif., USA). […]"}, "Ptch1+/− MB allografts": {"tested_on": "Ptch1+/− MB allografts", "assay": "Ptch1+/− MB allograft in nude mice", "format": "in vivo, BALB/c nude mice", "settings": "18 days", "description": "FIG. 17. Glabrescione B inhibits Gli1-dependent MB tumor growth in vivo (Ptch1^+/− MB allografts). (A) Change of tumor volume during Glabrescione B (GlaB) or vehicle (CTR) treatment period (days 18). […] (C) qRT-PCR of Gli1 and Ptch1 mRNA expression levels normalized with endogenous control β2-microglobulin and HPRT.\nTherefore, to verify the Glabrescione B efficacy to inhibit Hh-dependent tumor cell growth in vivo, we turned to an allograft model of MB cells. Spontaneous Medulloblastomas from Ptch1^+/− mice were isolated, minced, pipetted to obtain a single-cell suspension and grafted s.c. at the posterior flank of female BALB/c nude mice (nu/nu) (Charles River Laboratories, Lecco, Italy). Tumors were grown until a median size of ˜100 mm^3. Animals were randomly divided into two groups (n=6) and treated with solvent only (2-hydroxypropyl-β-cyclodextrin:ethanol, 3:1) or Glabrescione B in solvent (75 μmol/Kg) for 18 days (2-hydroxypropyl-β-cyclodextrin was purchased from Sigma Aldrich, St. Louis, Mo., USA). 2×10^6 ASZ001 BCC cells were resuspended in an equal volume of 154CF medium and Matrigel (BD Biosciences, Heidelberg, Germany) and injected s.c. at the posterior flank of female NOD/SCID mice (Charles River Laboratories, Lecco, Italy), as previously described (Eberl et al, 2012). Tumors were grown until a median size of ˜200 mm^3. Animals were randomly divided into two groups (n=6) and treated with solvent only (2-hydroxypropyl-β-cyclodextrin:ethanol, 3:1) or Glabrescione B in solvent (100 μmol/Kg) for 18 days. Tumor volumes change was calculated by the formula length×width×0.5×(length+width) (Lauth et al, 2007).\nNude mice were grafted with spontaneous primary MB from Ptch1^+/− mice and treated every second day with s.c. injections of Glabrescione B at a concentration of 75 μmol/Kg or solvent only (n=6 for each group)."}, "[2]": {"assay": "NMR monitoring of direct interaction with Zn2+", "format": "binding"}, "human MB D283 cells": {"tested_on": "human MB D283 cells", "assay": "Proliferation (BrdU), viability (MTS) and cell death (Trypan Blue) of MB D283 cells", "format": "cell-based", "settings": "48 h", "method": "FIG. 11. (A) Human MB D283 cells were treated with different concentrations of Glabrescione B as indicated for 48 h. Inhibition of cell proliferation was measured as percentage of BrdU incorporation in comparison to DMSO (0.5%, vehicle) treated sample. (B) Human MB D283 cells were treated for 48 h with increasing concentrations of Glabrescione B as indicated. After 48 h, CellTiter 96® Aqueous One Solution Reagent was added to each well according to the manufacturer's instructions. After one hour in culture the cell viability (expressed in % viability) was determined by measuring the absorbance at 490 nm comparing treatment with DMSO (0.5%, vehicle) control.\nFIG. 12. […]\nA biological assay was performed in cerebellar neural progenitors cells obtained from 4-days-old mice, when they are actively proliferating under Sonic Hedgehog (Shh) stimulus. As expected, treatment of these cells with Shh increased the proliferation rate, as evaluated by BrdU-incorporation assay. […]\nMore important, Glabrescione B was able to promote cell death of D283 MB cells, as reported by Trypan Blue count assay (FIG. 12). […] Cell death was measured by Trypan Blue (Sigma, cat. #T8154) exclusion counting at least 200 cells, in duplicate samples. All described assays were evaluated at 48 h after treatment."}, "Jurkat T leukemia cells": {"tested_on": "Jurkat T leukemia cells", "assay": "Effect on Hh-independent Jurkat cells", "format": "cell-based"}},
  "data": [
    {"smiles": "COc1cc(OC)c2c(=O)c(-c3ccc(OCC=C(C)C)c(OCC=C(C)C)c3)coc2c1", "note": "[Glabrescione B, 3-(3′,4′-bis(3-methylbut-2-enyloxy)phenyl)-5,7-dimethoxy-4H-chromen-4-one]", "values": [
      {"measurement": "BCC cell proliferation", "setting": "[1]", "result": "impaired"},
      {"measurement": "Gli1 mRNA in BCC cells", "setting": "[1]; qRT-PCR", "result": "suppression of Gli1 mRNA"},
      {"measurement": "tumor mass", "setting": "Ptch1+/− MB allografts; 75 μmol/Kg s.c. every second day", "result": "significantly suppressed tumor mass"},
      {"measurement": "Gli1 mRNA levels in tumors", "setting": "Ptch1+/− MB allografts; 75 μmol/Kg s.c.", "result": "reduction of Gli1 mRNA levels"},
      {"measurement": "Ki67 staining in tumors", "setting": "Ptch1+/− MB allografts; 75 μmol/Kg s.c.", "result": "decreased Ki67 staining"},
      {"measurement": "binding to Zn2+ (NMR)", "setting": "[2]", "result": "not capable of binding to the metal ions"},
      {"measurement": "percentage of cell death (Trypan Blue)", "setting": "human MB D283 cells", "result": "increase of the percentage of cell death, in a dose-dependent manner"},
      {"measurement": "growth rate inhibition", "setting": "human MB D283 cells; dose range of 1-50 μM, MTS and BrdU incorporation", "result": "70-95%"},
      {"measurement": "effect on Jurkat cells", "setting": "Jurkat T leukemia cells", "result": "no effect"}
    ]}
  ]
}
